Measured values taken from patent US8791273B2, “4R,5S-enantiomer of 2-(5-methyl-2-oxo-4-phenyl-pyrrolidin-1-yl)-acetamide with nootropic activity” (JSC Grindeks, priority 2009, dated 2014).
Marks after values point to notes of the source that are not given here.

Legend:
ICR male mice = test: Passive avoidance test (learning and memory); type: in vivo; settings: for Latent time (retention latency to cross into the dark compartment): intraperitoneally 46 μmol/kg 60 min before the training trial, retention test 24 hours later, cut-off 300 s, mean±S.E.M, n≧10
Protocol: Passive avoidance test was performed in a shuttle-box apparatus (Ugo Basile, Italy) with two communicating compartments of equal size (20×10×16 cm) and a stainless steel grid floor (bars spaced 0.7 cm apart). The right-hand compartment (shock compartment) was painted black to obtain a dark chamber. The left-hand compartment was painted white and illuminated by a bulb (100 W) installed on the top of plexiglass cover. These compartments were separated by a guillotine door (5×4 cm). On day 1 (training trial), mice were placed in the illuminated compartment and the door between the two compartments was opened 60 s later. When mice entered the dark compartment with all four feet, the door automatically closed and an inescapable electrical foot shock (0.1 mA; 3 s) was delivered through the grid floor. Latency to cross into the dark compartment (training latency) was automatically measured. The retention test was performed 24 hours later (day 2). Mice were placed into the light (safe) compartment, with access to the dark one (within 10 s) for a period of 300 s (cut-off time). The latency to cross into the dark compartment with all four feet was automatically measured (retention latency).
Effects of 2-(4R-phenyl-2-oxopyrrolidin-1-yl)acetamide), racemic 2-(5-methyl-2-oxo-4-phenyl-pyrrolidin-1-yl)-acetamide and 2-(5S-methyl-2-oxo-4R-phenyl-pyrrolidin-1-yl)-acetamide on retention of passive avoidance response (memory) in ICR male mice.
The compounds were administered intraperitoneally at the dose of 46 μmol/kg 60 min before the training trial (day 1). The saline control group was run concurrently with the drug-treated groups. The statistical analysis was performed by Student's t-test. Data represent mean±S.E.M *p<0.05, ^#p<0.05, ^$p<0.05 versus saline control group, 2-(4R-phenyl-2-oxopyrrolidin-1-yl)acetamide-treated group and racemic2-(5-methyl-2-oxo-4-phenyl-pyrrolidin-1-yl)-acetamide-treated group, respectively; n≧10

NC(=O)CN1C[C@@H](c2ccccc2)CC1=O [2-(4R-phenyl-2-oxopyrrolidin-1-yl)acetamide, reference compound]
Latent time (retention latency to cross into the dark compartment) (ICR male mice): 94.9 ± 27.6 s

CC1C(c2ccccc2)CC(=O)N1CC(N)=O (racemic) [2-(5-methyl-2-oxo-4-phenyl-pyrrolidin-1-yl)-acetamide racemic, 2-(5-methyl-2-oxo-4-phenyl-pyrrolidin-1-yl)-acetamide]
Latent time (retention latency to cross into the dark compartment) (ICR male mice): 74.2 ± 19.9 s

C[C@H]1[C@@H](c2ccccc2)CC(=O)N1CC(N)=O [2-(5S-methyl-2-oxo-4R-phenyl-pyrrolidin-1-yl)-acetamide]
effect on memory in the passive avoidance task (ICR male mice; dose of 46 μmol/kg, Student's t-test): statistically significant effect on memory | Latent time (retention latency to cross into the dark compartment) (ICR male mice): 170.6 ± 41.9* ^#$ s | melting point: 169 to 171 °C
